# Measured values from patent US8835425B2, “Use of selective GABA A α5 negative allosteric modulators for the treatment of central nervous system conditions” (Hoffmann-La Roche Inc., priority 2010, dated 2014).
# Tests used:
# [1] = target: human GABA A α2β3γ2 (Homo sapiens, UniProt P18507+P47869); assay: Two-microelectrode voltage clamp, modulation of GABA EC10 response in Xenopus oocytes, α2β3γ2; type: cell-based; parameters: expressed in transfected cells; host or cells: Xenopus laevis oocytes; conditions: % change of EC10 GABA response at 3 μM or at 30×Ki if Ki below 0.1 μM
# Chain of human GABA A α2β3γ2 (P47869 29-451): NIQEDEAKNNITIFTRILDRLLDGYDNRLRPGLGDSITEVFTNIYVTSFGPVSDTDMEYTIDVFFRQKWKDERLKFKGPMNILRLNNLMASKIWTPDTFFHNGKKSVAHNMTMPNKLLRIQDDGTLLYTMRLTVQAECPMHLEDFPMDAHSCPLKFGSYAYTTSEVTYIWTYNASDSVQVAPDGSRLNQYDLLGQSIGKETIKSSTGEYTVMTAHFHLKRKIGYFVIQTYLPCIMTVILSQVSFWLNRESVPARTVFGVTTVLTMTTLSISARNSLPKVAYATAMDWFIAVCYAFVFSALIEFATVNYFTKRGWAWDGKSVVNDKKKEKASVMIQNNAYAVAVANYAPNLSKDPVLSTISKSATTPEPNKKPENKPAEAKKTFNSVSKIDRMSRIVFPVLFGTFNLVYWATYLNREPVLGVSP
# Chain of human GABA A α2β3γ2 (P28472 26-473 partner): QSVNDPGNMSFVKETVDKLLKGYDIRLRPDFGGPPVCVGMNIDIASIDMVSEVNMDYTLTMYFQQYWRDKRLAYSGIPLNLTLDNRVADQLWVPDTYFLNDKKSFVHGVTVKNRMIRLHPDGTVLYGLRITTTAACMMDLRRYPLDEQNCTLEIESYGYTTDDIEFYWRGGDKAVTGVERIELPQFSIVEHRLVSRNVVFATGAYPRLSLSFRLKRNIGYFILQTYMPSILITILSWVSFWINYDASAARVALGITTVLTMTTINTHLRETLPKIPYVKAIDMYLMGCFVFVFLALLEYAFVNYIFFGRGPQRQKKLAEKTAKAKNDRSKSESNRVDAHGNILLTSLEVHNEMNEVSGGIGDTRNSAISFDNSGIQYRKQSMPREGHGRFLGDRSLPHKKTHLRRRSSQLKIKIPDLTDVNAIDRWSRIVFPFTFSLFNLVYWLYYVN
# Chain of human GABA A α2β3γ2 (P18507 40-475): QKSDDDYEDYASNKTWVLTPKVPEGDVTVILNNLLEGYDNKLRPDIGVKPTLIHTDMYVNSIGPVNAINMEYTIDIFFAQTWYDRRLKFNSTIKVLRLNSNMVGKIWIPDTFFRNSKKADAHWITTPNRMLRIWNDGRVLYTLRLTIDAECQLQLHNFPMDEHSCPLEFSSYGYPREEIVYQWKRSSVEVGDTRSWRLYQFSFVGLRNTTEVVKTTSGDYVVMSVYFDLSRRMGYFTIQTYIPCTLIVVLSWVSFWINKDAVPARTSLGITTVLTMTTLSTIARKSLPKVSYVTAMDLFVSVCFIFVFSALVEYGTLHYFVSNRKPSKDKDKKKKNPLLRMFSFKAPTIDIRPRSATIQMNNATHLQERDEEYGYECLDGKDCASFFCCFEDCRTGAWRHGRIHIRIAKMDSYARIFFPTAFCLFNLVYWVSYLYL
# Description: Table 2b. […] Effect at human GABA A α5 receptors: % change of a submaximal (EC10) response to GABA determined at 30×Ki value from the flumazenil binding assay.
# Subtype-selective effects were determined on cloned receptors expressed in Xenopus oocytes. Human recombinant GABA A receptors were expressed in Xenopus laevis oocytes. Current responses were evoked in two-microelectrode voltage-clamp condition by applying an EC10 of GABA before and during the co-application of the test compound. Response amplitudes in the presence of the test compound are expressed as percentage of the amplitudes before drug addition.
# [2] = target: human GABA A α1β2/3γ2 (Homo sapiens, UniProt P14867+P18507); assay: Two-microelectrode voltage clamp, modulation of GABA EC10 response in Xenopus oocytes, α1β2/3γ2; type: cell-based; parameters: expressed in transfected cells; host or cells: Xenopus laevis oocytes; conditions: % change of EC10 GABA response at 3 μM or at 30×Ki if Ki below 0.1 μM
# Chain of human GABA A α1β2/3γ2 (P14867 28-456): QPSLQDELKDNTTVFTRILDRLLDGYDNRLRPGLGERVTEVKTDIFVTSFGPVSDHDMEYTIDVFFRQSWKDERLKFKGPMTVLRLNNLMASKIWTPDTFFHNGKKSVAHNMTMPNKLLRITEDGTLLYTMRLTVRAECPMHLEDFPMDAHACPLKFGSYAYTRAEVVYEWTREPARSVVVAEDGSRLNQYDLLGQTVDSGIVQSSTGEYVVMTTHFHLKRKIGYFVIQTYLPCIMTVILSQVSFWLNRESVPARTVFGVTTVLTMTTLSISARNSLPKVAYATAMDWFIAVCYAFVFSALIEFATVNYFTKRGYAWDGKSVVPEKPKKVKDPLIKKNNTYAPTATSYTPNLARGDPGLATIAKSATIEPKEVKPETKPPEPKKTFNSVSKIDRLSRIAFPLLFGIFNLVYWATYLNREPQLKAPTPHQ
# Chain of human GABA A α1β2/3γ2 (P18507 40-475): as the sequence (P18507 40-475) above
# [3] = system: Control mice (B16;129F1); assay: Contextual fear conditioning; type: in vivo
# Description: Control mice (B16;129F1) were trained with a contextual fear-conditioning protocol using either one trial per day for one day (FIG. 20) or two consecutive days (FIG. 21). On the training day, 30 minutes after i.p. injection of 8581 or vehicle, mice were placed in training chamber. A foot shock (1 s, 0.4 mA) was delivered 40 s after placement. Conditioned response (percentage freezing time of the mice) was recorded 24 h after training by using automated procedures. Average freezing levels during the first 30 s of each training day and 24 hr after the last training trial were plotted.
# [4] = system: Nf1+/− mice and control mice (B16;129F1); assay: Rotarod, accelerating speeds, Nf1+/− and control mice; type: in vivo; conditions: Nf1+/− mutant or control mice, 1 mg/kg i.p.
# Description: Control mice (B16;129F1) and Nf1+/− mice were treated with vehicle or with 8581 (n=10 for each of the 4 groups). 30 minutes after i.p. injection of 8581 (1 mg/kg) or vehicle, mice were tested with a rotarod protocol using accelerating speeds (4-40 rpm, maximal duration 300 s) for four trials with 30 min intertrial interval. FIG. 22 visualizes performance of control mice in the Rotarod and FIG. 23 illustrates the performance of Nf1+/− mice in the Rotarod.
# [5] = 8581 concentration in serum after i.p. injection; type: in vivo, mice; conditions: ip; for concentration at 0.5 h: 0.5 h after i.p. injection; for concentration at 3 h: 3 h after i.p. injection; for concentration at 7 h: 7 h after i.p. injection; for concentration at 24 h: 24 h after i.p. injection
# Description: Table 5. 8581 concentration in serum (ng/ml) of Nf1+/− and control mice 0.5, 3, 7, and 24 hours after i.p. injection
# [6] = system: Nf1+/− mice; assay: Spatial learning of Nf1+/− mice in the Morris water maze; type: in vivo
# Description: 1 week after handling, mice were trained with two consecutive trials per day for 8-9 days 30 minutes after i.p. injection of 8581 or vehicle. In each trial, mice were given 60 s to find the platform. After each trial, mice were put on the platform for 15 s. On the day of probe trial (Day 3, Day 5, Day 7, and Day 9) 60 s of probe trial was performed after training. […] Two different measures of spatial learning (% search in quadrant (FIG. 16) and average proximity to the target platform (FIG. 17)) show similarly, that active pharmaceutical compounds used in present invention rescue spatial learning deficits of Nf1+/− mice (CO/veh (n=10), Nf1/veh (n=9), CO/8581 (n=10), and Nf1/8581 (n=11).
# Effects of active pharmaceutical compounds used in present invention on the performance of Nf1+/− mice were tested under conditions in which the spatial learning of the mutants was indistinguishable from controls (less extinction due to lower number of probe trials). Mean percentage of time spent in each quadrant during a probe trial in plotted in FIG. 18. Average proximity to the target quadrant is plotted in FIG. 19. […] On probe trial 1 and 2 (days 5 and 7), all groups searched selectively in the target quadrant (p<0.01), and there were no differences between groups.
# [7] = system: hippocampus of TS and CO mice; assay: Hippocampal neurogenesis, granule cell density and GAD+ boutons after chronic treatment; type: in vivo
# Text: Alterations in hippocampal morphology such as reductions in granule cell density and hippocampal neurogenesis have also been implicated in the learning deficits shown by Ts65Dn mice. Spatial learning is known to depend on the functional integrity of the hippocampus, a structure that plays a key role in information encoding and retrieving in the CNS. […] Also, neuronal survival of the cells that have undergone maturation was also normalized in TS mice, as shown by the increase in DAPI+ cells found in TS mice after chronic 8581 administration (p=0.026; FIG. 14).
# [8] = B16;129F1, mouse, 0.1 mg/kg, control mice
# [9] = B16;129F1, mouse, 1 mg/kg, control mice
# [10] = TS mice, chronic administration
smiles,measurement,setting,value
"Cc1onc(-c2ccc(F)cc2)c1COc1ccc(C(=O)N2CCS(=O)(=O)CC2)cn1 [Compound R1, (1,1-Dioxo-1,6-thiomorpholin-4-yl)-{6-[3-(4-fluoro-phenyl)-5-methyl-isoxazol-4-ylmethoxy]-pyridin-3-yl}-methanone]",Efficacy GABA A α2β3γ2,[1],−6%
same,Efficacy GABA A α1β2/3γ2,[2],−4%
"FC(F)c1ncn2c1Cn1ncnc1-c1cc(Br)ccc1-2 [Compound 8581, 3-Bromo-10-difluoromethyl-9H-imidazo[1,5-a][1,2,4]triazolo[1,5-d][1,4]benzodiazepine]","contextual conditioning, training for two consecutive days","[3]; control mice, 1 mg/kg i.p.",significant increase in contextual conditioning
same,freezing at 24 hr after training,"[3]; control mice, 3 mg/kg i.p., one training day",significantly enhanced freezing
same,contextual fear conditioning dose response curve,"[3]; control mice, 0.3, 1.0 and 3.0 mg/kg",dose-dependent increase in contextual fear conditioning
same,performance in rotarod,[4],did not affect the performance
same,concentration at 0.5 h,[5]; [8],9.45 ± 3.05 ng/mL
same,concentration at 0.5 h,[5]; [9],271 ± 1 ng/mL
same,concentration at 3 h,[5]; [8],< 0.5 ng/mL
same,concentration at 3 h,[5]; [9],11.9 ± 2.51 ng/mL
same,concentration at 7 h,[5]; [8],< 0.5 ng/mL
same,concentration at 7 h,[5]; [9],< 0.5 ng/mL
same,concentration at 24 h,[5]; [8],< 0.5 ng/mL
same,concentration at 24 h,[5]; [9],< 0.5 ng/mL
same,concentration at 0.5 h,"[5]; mouse, 0.1 mg/kg, Nf1+/− mice",11 ± 1.73 ng/mL
same,concentration at 0.5 h,"[5]; mouse, 1 mg/kg, Nf1+/− mice",192 ± 35 ng/mL
same,concentration at 3 h,"[5]; mouse, 0.1 mg/kg, Nf1+/− mice",< 0.5 ng/mL
same,concentration at 3 h,"[5]; mouse, 1 mg/kg, Nf1+/− mice",8.95 ± 0.5 ng/mL
same,concentration at 7 h,"[5]; mouse, 0.1 mg/kg, Nf1+/− mice",< 0.5 ng/mL
same,concentration at 7 h,"[5]; mouse, 1 mg/kg, Nf1+/− mice",< 0.5 ng/mL
same,concentration at 24 h,"[5]; mouse, 0.1 mg/kg, Nf1+/− mice",< 0.5 ng/mL
same,concentration at 24 h,"[5]; mouse, 1 mg/kg, Nf1+/− mice",< 0.5 ng/mL
same,performance of Nf1+/− mice under conditions that occlude their behavioral deficits,[6]; 1 mg/kg,does not affect the performance
same,spatial learning deficits of Nf1+/− mice,"[6]; Nf1+/− mice, 1 mg/kg i.p. 30 minutes before training, probe trials",rescued the spatial learning deficits
same,Efficacy GABA A α2β3γ2,[1],−11%
same,number of GABAergic synapses (GAD+) in CO mice,"[7]; CO mice, chronic treatment",non-significant tendency to increase
same,density of proliferating (Ki67+) cells in hippocampus,[7]; [10],completely restored the density of proliferating cells
same,"neuronal survival (DAPI+ cells, granular cell layer)",[7]; [10],normalized
same,number of GAD positive boutons in hippocampus,"[7]; TS mice, chronic treatment",decreased dramatically
same,Efficacy GABA A α1β2/3γ2,[2],−1%
